Test results as given in patent US20090012178A1, “Benzoxazocines and Their Therapeutic Use” (priority 2005, published 2009).
Read-outs that look alike come from different tables or passages of the source.

Assays:
[1] = Mouse hotplate model of acute analgesia; assay type: in vivo; settings: for Paw Latency (Sec) above control: 60 min before testing, * = statistical significance
Description: Compounds of the invention have also been evaluated in the mouse hotplate model of acute analgesia. Mice placed on a metallic hot plate will respond by paw licking or by jumping up from the plate (Eddy et al., 1950—J. Pharmacol. Exp. Ther.; 98:121-137). Analgesics increase nociceptive reaction latency.
Mice (17-23 g male Swiss mice ICO: OF1) were placed on a metallic hot plate maintained at 56±0.2° C. The nociceptive reaction latency, characterized by a licking reflex of the forepaws or by a jumping off the hot plate, was recorded. Plate heat cut-off time was 30 seconds. The test substances and vehicle were orally administered 60 min before testing. Results are given in Table 2 (nt=not tested; *denotes statistical significance achieved).

CYP 2D6 = CYP 2D6 (Homo sapiens, UniProt P10635); experiment: CYP 2D6 inhibition, substrate based assay; assay type: in vitro ADME
Description: (§1) CYP 2D6 inhibition assays were conducted according to the method of Ono et al. (1996—Xenobiotica, 26: 681-693). 5-HT Transporter binding assays were conducted according to the method of Tatsumi et al. (1997—Eur. J. Pharmacol., 340: 249-258). NA Transporter binding assays were conducted according to the method of Pacholczyk et al. (1991—Nature, 350: 350-354).

NA Transporter = NA Transporter (Homo sapiens, UniProt P23975); experiment: NA Transporter binding assay (NRI)
Description: as §1

5-HT Transporter = 5-HT Transporter (Homo sapiens, UniProt P31645); experiment: 5-HT Transporter binding assay (SRI)
Description: as §1

Pharmacokinetic profile = assay type: in vivo; settings: compared with nefopam
[2] = Morphine challenge assay (morphine-induced emesis in ferrets); assay type: in vivo, ferret; settings: for % Reduction in no of retches/vomits: 3 mg/kg ip, 60 min before morphine 0.125 mg/Kg s.c., * = statistical significance; for anti-emetic activity in the morphine-induced emesis model (in words): ferrets
Description: In this respect, compounds of the invention retain the low side-effect potential of nefopam while having greater efficacy and more favourable pharmacokinetic parameters for chronic use.
Morphine was administered (0.125 mg/Kg s.c.) to albino or fitch male ferrets (0.9-1.7 kg) to induce emesis. Emesis was characterized by rhythmic abdominal contractions which were either associated with the oral expulsion of solid or liquid material from the gastrointestinal tract (ie vomiting) or not associated with the passage of material (i.e. retching movements). The number of highly distinctive abdominal contractions was counted.
The test substances and vehicle were administered by intraperitoneal injection 60 min before morphine administration. Results are given in Table 4 (*denotes statistical significance achieved).

cytochrome P450 enzymes = experiment: Metabolism by cytochrome P450 enzymes; assay type: in vitro ADME
Behavioural Despair Test = assay type: in vivo, mouse; settings: 30 minutes before the test, * = statistical significance
Description: Compounds of the invention have been evaluated in the Behavioural Despair Test, a model which detects antidepressant activity.
The Behavioural Despair Test was conducted according to the method of Porsolt et al., (1977—Arch. Int. Pharmacodyn., 229:327-336). Mice forced to swim in a situation from which they cannot escape rapidly become immobile. Antidepressants decrease the duration of immobility.
Mice (20-27 g male Rj: NMRI) were individually placed in a cylinder (height=24 cm, diameter=13 cm) containing 10 cm water (22° C.), from which they cannot escape. The mice were placed in the water for 6 minutes and the duration of immobility during the last 4 minutes was measured. All compounds were administered i.p. 30 minutes before the test, and compared with a vehicle control group. Results are given in Table 5 (nt=not tested; *denotes statistical significance achieved).

[3] = Formalin-induced paw licking in mouse; assay type: in vivo; settings: * = statistical significance; for Nociception, Early Phase: licking time 0 to 5 minutes after formalin; for Nociception, Late Phase: licking time 20 to 30 minutes after formalin
Description: Compounds of the invention have also been evaluated in the formalin-induced paw licking model in mice. Compounds were evaluated for both an early stage response and a late stage response against duloxetine and nefopam as controls.
Inflammation was induced by subplantar injection of a 5% formalin solution (0.02 ml) into the mouse right hindpaw (20-25 g male Rj: NMRI). Hindpaw licking time was continuously recorded in a blinded fashion between 0 to 5 minutes (early phase) and between 20 to 30 minutes (late phase) after formalin injection (Hunskaar et al., 1985—J. Neurosci. Methods; 14:69-76).
The test substances and vehicle were orally administered 60 min before formalin injection. Results are given in Table 3 (nt=not tested; *denotes statistical significance achieved).

[4] = read-out: CYP 2D6 inhibition IC50

5-HT Transporter, sequence (P31645 whole entry): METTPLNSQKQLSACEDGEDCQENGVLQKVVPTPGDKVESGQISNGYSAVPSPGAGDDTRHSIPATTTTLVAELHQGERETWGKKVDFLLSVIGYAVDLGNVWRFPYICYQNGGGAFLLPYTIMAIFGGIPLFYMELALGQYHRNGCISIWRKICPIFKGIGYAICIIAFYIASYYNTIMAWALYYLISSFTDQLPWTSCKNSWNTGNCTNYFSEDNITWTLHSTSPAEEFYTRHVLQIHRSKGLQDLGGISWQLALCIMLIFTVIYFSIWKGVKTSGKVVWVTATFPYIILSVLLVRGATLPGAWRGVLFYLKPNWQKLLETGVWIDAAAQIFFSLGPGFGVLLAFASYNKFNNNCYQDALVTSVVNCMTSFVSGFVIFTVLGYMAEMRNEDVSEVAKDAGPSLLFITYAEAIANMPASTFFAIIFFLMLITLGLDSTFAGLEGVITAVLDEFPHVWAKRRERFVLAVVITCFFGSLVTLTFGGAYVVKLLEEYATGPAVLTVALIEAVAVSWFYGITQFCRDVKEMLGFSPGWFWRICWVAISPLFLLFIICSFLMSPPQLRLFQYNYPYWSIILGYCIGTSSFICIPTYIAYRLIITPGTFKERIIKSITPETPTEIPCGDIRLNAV
CYP 2D6, sequence (P10635 whole entry): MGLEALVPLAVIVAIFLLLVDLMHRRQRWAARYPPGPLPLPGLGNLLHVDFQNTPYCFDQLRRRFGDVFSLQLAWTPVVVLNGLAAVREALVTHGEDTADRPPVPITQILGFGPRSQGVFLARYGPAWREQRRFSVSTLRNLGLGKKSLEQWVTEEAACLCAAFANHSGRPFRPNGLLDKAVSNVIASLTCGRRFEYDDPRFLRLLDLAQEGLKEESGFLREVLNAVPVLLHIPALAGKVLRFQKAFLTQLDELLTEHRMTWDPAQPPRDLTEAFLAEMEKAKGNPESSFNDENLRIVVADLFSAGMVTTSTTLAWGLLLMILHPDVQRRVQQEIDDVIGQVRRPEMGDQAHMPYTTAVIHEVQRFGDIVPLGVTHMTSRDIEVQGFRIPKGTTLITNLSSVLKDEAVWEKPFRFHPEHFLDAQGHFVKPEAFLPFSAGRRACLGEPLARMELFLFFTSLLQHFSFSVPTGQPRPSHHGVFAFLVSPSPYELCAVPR
NA Transporter, sequence (P23975 whole entry): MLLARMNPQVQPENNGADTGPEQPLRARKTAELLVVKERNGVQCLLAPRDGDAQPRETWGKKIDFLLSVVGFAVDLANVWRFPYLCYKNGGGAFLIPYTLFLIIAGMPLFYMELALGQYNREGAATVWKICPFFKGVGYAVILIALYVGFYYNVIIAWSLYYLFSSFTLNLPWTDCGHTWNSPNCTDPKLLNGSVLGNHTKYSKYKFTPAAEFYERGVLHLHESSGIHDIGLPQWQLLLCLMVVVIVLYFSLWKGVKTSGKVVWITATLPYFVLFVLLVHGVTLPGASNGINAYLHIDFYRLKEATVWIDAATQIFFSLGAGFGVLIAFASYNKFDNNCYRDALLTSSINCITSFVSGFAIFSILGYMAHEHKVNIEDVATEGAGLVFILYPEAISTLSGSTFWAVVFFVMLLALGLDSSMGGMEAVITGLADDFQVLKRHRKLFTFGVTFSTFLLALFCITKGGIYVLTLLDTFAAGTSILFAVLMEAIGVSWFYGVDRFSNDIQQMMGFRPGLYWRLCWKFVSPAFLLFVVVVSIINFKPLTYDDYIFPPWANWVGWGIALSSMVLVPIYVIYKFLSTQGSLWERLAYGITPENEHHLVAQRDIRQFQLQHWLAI

SMILES | Paw Latency (Sec) above control ([1]; 30 mg/kg po) | Paw Latency (Sec) above control ([1]; 60 mg/kg po) | IC50 (CYP 2D6) [µM] | IC50 (NA Transporter; read-out: IC50 vs NRI) [µM] | % Reduction in no of retches/vomits [2] [%*] | Nociception, Early Phase ([3]; 30 mg/kg po) [%] | Nociception, Late Phase ([3]; 30 mg/kg po) | Nociception, Early Phase ([3]; 60 mg/kg po) | Nociception, Late Phase ([3]; 60 mg/kg po) | further results
COc1cccc([C@H]2OCCN(C)Cc3cc(C#N)ccc32)c1 [Example 2, (1R)-8-cyano-5-methyl-1-(3-methoxy)phenyl-1,3,4,6-tetrahydro-5H-benz[f]-2,5-oxazocine] | 6 s | 1 s | 9.6 | 3.8 |  |  |  |  |  | IC50 (5-HT Transporter; read-out: IC50 vs SRI): 0.12 µM
COc1cccc(C2OCCN(C)Cc3cc(C#N)ccc32)c1 (single isomer, unassigned) [Example 1] | 5 s | 7* Sec | 5.7 | 0.4 | 91 | −49 | −46% | −75%* | −88%* | efficacy in the mouse hot-plate model (in words) [1]: greater efficacy than the racemate; Paw Latency (Sec) above control ([1]; 10 mg/kg po): 9* Sec; pharmacokinetic profile (in words) (Pharmacokinetic profile): greatly improved pharmacokinetic profile over the parent compound nefopam; anti-emetic activity in the morphine-induced emesis model (in words) [2]: anti-emetic; metabolism by cytochrome P450 enzymes (in words) (cytochrome P450 enzymes): metabolised by a range of cytochrome P450 enzymes; Duration of Immobility (% change from ctrl) (Behavioural Despair Test; 10 mg/kg ip): −24* %; Duration of Immobility (% change from ctrl) (Behavioural Despair Test; 20 mg/kg ip): −8%; Duration of Immobility (% change from ctrl) (Behavioural Despair Test; 40 mg/kg ip): −61* %; Duration of Immobility (% change from ctrl) (Behavioural Despair Test; 80 mg/kg ip): −85* %; IC50 (5-HT Transporter): 0.0089 µM
CNCC[C@H](Oc1cccc2ccccc12)c1cccs1 [Duloxetine] |  |  |  |  |  | −49 | −85%* |  |  | Duration of Immobility (% change from ctrl) (Behavioural Despair Test; 10 mg/kg ip): −6%; Duration of Immobility (% change from ctrl) (Behavioural Despair Test; 20 mg/kg ip): −9%; Duration of Immobility (% change from ctrl) (Behavioural Despair Test; 40 mg/kg ip): −65* %; Duration of Immobility (% change from ctrl) (Behavioural Despair Test; 80 mg/kg ip): −100* %
COc1cccc(C2OCCN(C)Cc3cc(C4CC4)ccc32)c1 (single isomer, unassigned) [Example 3, 8-cyclopropyl-5-methyl-1-(3-methoxy)phenyl-1,3,4,6-tetrahydro-5H-benz[f]-2,5-oxazocine] | 6* Sec | 9* Sec |  |  | 89 | −45 | −51% | −56%* | −73%* | Paw Latency (Sec) above control ([1]; 10 mg/kg po): 3 s; anti-emetic activity in the morphine-induced emesis model (in words) [2]: anti-emetic; IC50 (CYP 2D6; [4]): 1.1 µM; IC50 (NA Transporter): 0.046 µM; IC50 (5-HT Transporter): 0.0052 µM
CN(C)CCCN1c2ccccc2CCc2ccccc21 [Imipramine] |  |  |  |  |  |  |  |  |  | Duration of Immobility (% change from ctrl) (Behavioural Despair Test; 32 mg/kg ip): −62* %
CN1CCOC(c2ccccc2)c2ccccc2C1 (stereo not shown) [Nefopam, reference compound] |  |  |  |  | 96 |  |  | −46% | −26% | Nociception, Early Phase ([3]; 100 mg/kg po): −76%*; Nociception, Late Phase ([3]; 100 mg/kg po): −68%*
COc1cccc(C2OCCN(C)Cc3cc(C4CC4)ccc32)c1 (stereo not shown) [Example 4, 8-cyclopropyl-5-methyl-1-(3-methoxy)phenyl-1,3,4,6-tetrahydro-5H-benz[f]-2,5-oxazocine] | 5 s | 5 s | > 10 | > 1 |  |  |  |  |  | IC50 (CYP 2D6; [4]): 10 µM; IC50 (NA Transporter; read-out: IC50 as NRI): > 1 µM; IC50 (5-HT Transporter; read-out: IC50 vs SRI): 0.021 µM
